In patent US11603378B2, “Azole silane compound” (Atotech Deutschland GmbH, priority 2018, dated 2023):

How the values were obtained:
Format in all cases: physicochemical
[1] = Stability test of aqueous working solution (precipitation at various pH); design: key: xx = strong precipitation; x = little, insignificant precipitation; 0 = no precipitation; settings: 50° C., approx. 1 wt.-%, 250 mL/L storage solution pH 11 + 750 mL/L water
Experimental: C-2ii) Aqueous Working Solution:
In a second stability test, stability of a compound of formula (Ib) also obtained in Example A), 3) was investigated at various pH values but with lower concentration compared to C-2i.
For that purpose, various working solutions (according to the present invention and not according to the present invention) have been prepared each comprising 250 mL/L of storage solution with pH 11 as described above under item C-2i and 750 mL/L water such that the compound of formula (Ib) was present in an total amount of approximately 1 wt.-%, based on the total weight of the respective working solution. The various pH values were obtained by adding sulfuric acid. The stability was evaluated after 14 days by carefully determining the presence of precipitates. During the stability tests, the temperature of each storage solution was kept constant at 50° C.

[2] = Stability test of alkaline storage solution (precipitation in dependence of pH); design: key to precipitation, storage solution: xx = strong precipitation; x = little, insignificant precipitation; 0 = no precipitation; settings: for precipitation, storage solution: 50° C., 4 wt.-% in 20 wt.-% water / 76 wt.-% DEGBE
Experimental: C-2i) Alkaline Storage Solution: In a first stability test, stability of a compound of formula (Ib) obtained in Example A), 3) was further investigated in dependence of the pH. For that purpose, various storage solutions (according to the present invention and not according to the present invention) have been prepared each comprising 200 mL/L water (corresponding to approximately 20 wt.-%), 800 mL/L DEGBE (corresponding to approximately 76 wt.-%), and a compound of formula (Ib) in a total amount of 4 wt.-%, based on the total weight of the respective storage solution. The various pH values were obtained by adding sodium hydroxide or sulfuric acid. The stability was evaluated after 1, 7, and 15 days by carefully determining the presence of any precipitates. During the stability tests, the temperature of each storage solution was 50° C.

[3] = Solubility test: time until 50 g/L of compound is fully dissolved in glycol ether solvent; settings: approx. 22° C., constant stirring, test carried out for 30 minutes; for t [min] DEGBE (time until fully dissolved): 50 g/L in diethylene glycol monobutyl ether; for t [min] EGBE (time until fully dissolved): 50 g/L in ethylene glycol monobutyl ether
Experimental: In a solubility test, solubility in diethylene glycol monobutyl ether (DEGBE) and ethylene glycol monobutyl ether (EGBE) as solvents was tested at approximately 22° C. under constant stirring. For that, the azole silane compound of Formula (Ia), obtained in Example A), 1), and the reference compound of formula (X) were dissolved in respective samples (mixtures).
In each solubility test the time “t” was determined until an amount of the respective compound in its highly viscous state, corresponding in each case to a concentration of 50 g/L of the azole silane compound (approximately corresponding to 5 wt.-%, based on the total weight of a respective test composition), was fully dissolved in the respective solvent. Each solubility test was carried out for 30 minutes.

CO[Si](CCCOCC(O)CSc1nnc(N)[nH]1)(OC)OC (stereo not shown) [formula (Ib)]
x: precipitation, working solution ([1]; pH 8, after 14 days) | precipitation, storage solution ([2]; pH 10, 1 d) | precipitation, storage solution ([2]; pH 10, 7 d) | precipitation, storage solution ([2]; pH 10, 15 d)
xx: precipitation, working solution ([1]; pH 4, after 14 days) | precipitation, working solution ([1]; pH 10, after 14 days) | precipitation, storage solution ([2]; pH 4, 1 d) | precipitation, storage solution ([2]; pH 4, 7 d) | precipitation, storage solution ([2]; pH 4, 15 d) | precipitation, storage solution ([2]; pH 7, 1 d) | precipitation, storage solution ([2]; pH 7, 7 d) | precipitation, storage solution ([2]; pH 7, 15 d)
0: precipitation, working solution ([1]; pH 6, after 14 days) | precipitation, working solution ([1]; pH 7, after 14 days) | precipitation, storage solution ([2]; pH 11, 1 d) | precipitation, storage solution ([2]; pH 11, 7 d) | precipitation, storage solution ([2]; pH 11, 15 d) | precipitation, storage solution ([2]; pH 12, 1 d) | precipitation, storage solution ([2]; pH 12, 7 d) | precipitation, storage solution ([2]; pH 12, 15 d)
stable: stability in DEGBE storage solution (in words) ([2]; comparatively high pH, concentrations of approximately 4 wt.-%)

CO[Si](CCCSc1nnc(N)[nH]1)(OC)OC [formula (X), reference compound]
25 min: t [min] DEGBE (time until fully dissolved) [3]
> 30 min: t [min] EGBE (time until fully dissolved) [3]

CO[Si](CCCOCC(O)CSc1nnc(N)s1)(OC)OC (stereo not shown) [formula (Ia)]
12 min: t [min] DEGBE (time until fully dissolved) [3]
10 min: t [min] EGBE (time until fully dissolved) [3]
